According to patent publication US6645504B1, “Bystander suppression of type I diabetes by oral administration of glucagon” (AutoImmune Inc., priority 1987, dated 2003):
Where no end group is shown, it is not given here.

Tests used:
insulitis = assay: Suppression of insulitis in NOD mice by oral administration; assay type: in vivo; settings: fed orally; for Insulitis Score: amount (mg) per Table 5, sacrificed at ten weeks of age
Method: NOD mice (Taconic Labs) were fed one mg of glucagon, or one mg of porcine insulin (both commercially purchased) or equal molar amounts of insulin A-chain, B-chain and B-chain peptides described below (all insulin fragments having been synthesized) twice weekly for five weeks and sacrificed at ten weeks of age.
Control animals were fed a non-pancreatic (i.e., unrelated) peptide, GAP. Insulitis was measured as a semiquantitative insulitis score according to the method described in Zhang, Z. J., PNAS(USA), 88:10252-10256, 1991.
The insulin B-chain peptides corresponded to amino acid residues 1-12 (B1-12), 10-22 (B10-22), 11-30 (B11-30) and 23-30 (B23-30). All animals were fed 10 times over three weeks.

OVA (responder) line = assay: Transwell triggering of suppression by MBP peptides; assay type: cell-based, rats; settings: peptide added to modulator well with spleen cells of MBP-fed animals; FIG. 11
Text: Transwell Cultures. A dual chamber transwell culture system (Costar, Cambridge, Mass.), which is 24.5 mm in diameter and consists of two compartments separated by a semi-permeable polycarbonate membrane, with a pore size of 0.4 μm, was used. The two chambers are 1 mm apart, allowing cells to be coin-cubated in close proximity without direct cell-to-cell contact. To measure in vitro suppression of proliferative responses in transwell cultures, 5×10^4 MBP- or OVA-specific line cells, raised and maintained as previously described (Ben-Nun, A. et al., Eur. J. Immunol. 11:195, 1981), were cultured with 10^6 irradiated (2,500 rad) thymocytes, in 600 μl of proliferation media in the lower well. Spleen cells from orally tolerized rats or controls (fed BSA) were added to the upper well (5×10^5 cells in 200 μl). Spleen cells were removed 7-14 days after the last feeding, and a single cell suspension was prepared by pressing the spleens through a stainless steel mesh. MBP and OVA (50 μg/ml) were added in a volume of 20 μl. […] In some experiments, modulator cells were added in the lower well together with responder cells, and in these instances modulator cells were irradiated (1,250 rad) immediately before being placed in culture. Proliferation media consisted of RPMI 1640 (Gibco Laboratories, Grand Island, N.Y.) supplemented with […] 2-mercaptoethanol, 1% sodium pyruvate, 1% penicillin and streptomycin, 1% glutamine, 1% HEPES buffer, 1% nonessential amino acids, and 1% autologous serum. Each transwell was performed in quadruplicate. The transwells were incubated at 37° C. in a humidified 6% CO2 and 94% air atmosphere for 72 hours. After 54 hours of culture, each lower well was pulsed with 4 μCi of [^3H]thymidine and at 72 hours split and reseeded to three wells in a round-bottomed 96-well plate (Costar) for harvesting onto fiberglass filters and counting using standard liquid scintillation techniques. Percent suppression =100×(1−Δ A cpm responders cultured with modulators/Δ cpm of responders).
The Transwell System of Example 2 above was used to identify the epitopes present on guinea pig MBP which induce the release of TGF-β from suppressor T-cells.
Peptides corresponding to guinea pig MBP residue nos.

EAE [1] = assay: I.V. tolerization with MBP and MBP peptides in EAE induced with whole guinea pig MBP; assay type: in vivo, SJL/J mice; settings: days 8 and 9 post immunization, FIG. 16
Text: FIG. 16 is a bar graph showing the effect of intravenous tolerization with MBP and disease inducing and non-inducing fragments thereof on induced EAE expression in SJL/J mice.
Finally, the suppression of EAE by I.V. tolerization with MBP and MBP peptides prior to disease expression (on days 8 and 9 post immunization) was examined.

DTH responses = DTH responses in animals fed MBP or MBP peptides; assay type: in vivo, Lewis rats; settings: FIG. 15
Text: Guinea pig MBP peptide 131-150 was ineffective in this case. Peptides were also fed with STI which prevents their breakdown by gastric juices and enhances their biological effect. DTH responses to whole MBP were suppressed by feeding MBP or any one of the MBP-peptides 21-40, or 71-90.

EAE [2] = assay: EAE induced by guinea pig MBP 71-90, feeding of MBP peptides; assay type: in vivo, Lewis rats; settings: fed; FIG. 14
Method: The effects of feeding various peptides to Lewis rats induced for EAE by guinea pig MBP residue nos. 71-90 (the major immunodominant epitope of guinea pig MBP as shown in Example 3 above) were also studied.
EAE was induced by immunizing with 0.25 mg of guinea pig MBP amino acid residue nos 71-90 in Complete Freund's Adjuvant and the effect of feeding various guinea pig MBP peptides on EAE was examined.

EAE [3] = assay: EAE induced with PLP peptide 140-160, oral vs. I.V. administration; assay type: in vivo, SJL/J mice; settings: 0.25 mg every other day
Method: 2. Fed Mouse MBP (0.25 mg)
3. Fed Bovine PLP (0.25 mg)
4. Inject I.V. Histone (0.25 mg)
5. Inject I.V. MBP (0.25 mg)
6. Inject I.V. PLP (0.25 mg)
Each group was treated every other day for 7 days. In the intravenous group, the material was injected into the eye plexus. The PLP peptide used was the disease inducing fragment 140-160 of bovine PLP. This peptide has the amino acid sequence H2N-[…]-CO2H (SEQ. ID NO: 13), representing the foregoing amino acid residues.

B23-30: insulin B-chain peptide, amino acid residues 23-30 (GFFYTPKT; Insulin B chain; UniProt P01308 47-54, looked up, fragment)
suppression of insulitis (in words) (insulitis): did not
Insulitis Score (insulitis): 2.22

guinea pig MBP 51-70: peptide corresponding to guinea pig MBP amino acid residues 51-70 (APKRGSGKDSHHAARTTHYG; UniProt P25188 51-70, looked up, fragment)
triggering suppression of proliferation in the transwell system (OVA (responder) line): capable of triggering suppression of proliferation

guinea pig MBP 21-40: peptide corresponding to guinea pig MBP amino acid residues 21-40 (MDHARHGFLPRHRDTGILDS; UniProt P25188 21-40, looked up, fragment)
suppression of EAE induced with whole guinea pig MBP (EAE [1]): ineffective in suppressing EAE
DTH responses to guinea pig MBP peptide 71-90 (DTH responses): not affected
DTH responses to whole MBP (DTH responses): suppressed
triggering suppression of proliferation in the transwell system (OVA (responder) line): capable of triggering suppression of proliferation
down-regulation of EAE induced by guinea pig MBP 71-90 (EAE [2]): equally effective in down-regulating EAE

glucagon [reference compound]
suppression of insulitis (in words) (insulitis): effective in suppressing insulitis
Insulitis Score (insulitis): 1.81

guinea pig MBP 131-150: Guinea pig MBP peptide 131-150 (DYKSKGFKGAHDAQGTLSKI; UniProt P25188 131-150, looked up, fragment)
suppression of EAE induced with whole guinea pig MBP (EAE [1]): ineffective in suppressing EAE
down-regulation of EAE induced by guinea pig MBP 71-90 (EAE [2]): ineffective

B-Chain: insulin B-chain, synthesized
suppression of insulitis (in words) (insulitis): suppressed insulitis
Insulitis Score (insulitis): 1.32

B11-30: insulin B-chain peptide, amino acid residues 11-30 (LVEALYLVCGERGFFYTPKT; ends and bridges not checked; UniProt P01308 35-54, looked up, fragment)
suppression of insulitis (in words) (insulitis): suppressed insulitis
Insulitis Score (insulitis): 1.44

B10-22: insulin B-chain peptide, amino acid residues 10-22 (HLVEALYLVCGER; ends and bridges not checked; UniProt P01308 34-46, looked up, fragment)
suppression of insulitis (in words) (insulitis): suppressed insulitis
Insulitis Score (insulitis): 1.71

B1-12: insulin B-chain peptide, amino acid residues 1-12 (FVNQHLCGSHLV; ends and bridges not checked; UniProt P01308 25-36, looked up, fragment)
suppression of insulitis (in words) (insulitis): suppressed insulitis
Insulitis Score (insulitis): 1.76

A-Chain: insulin A-chain, synthesized
suppression of insulitis (in words) (insulitis): suppressed insulitis
Insulitis Score (insulitis): 1.88

guinea pig MBP 101-120: peptide corresponding to guinea pig MBP amino acid residues 101-120 (SQGKGRGLSLSRFSWGAEGQ; UniProt P25188 101-120, looked up, fragment)
triggering suppression of proliferation in the transwell system (OVA (responder) line): capable of triggering suppression of proliferation

B1: mouse MBP: Mouse myelin basic protein (protein, UniProt P04370 1-250, looked up)
Myelin basic protein: MGNHSGKRELSAEKASKDGEIHRGEAGKKRSVGKLSQTASEDSDVFGEADAIQNNGTSAEDTAVTDSKHTADPKNNWQGAHPADPGNRPHLIRLFSRDAPGREDNTFKDRPSESDELQTIQEDPTAASGGLDVMASQKRPSQRSKYLATASTMDHARHGFLPRHRDTGILDSIGRFFSGDRGAPKRGSGKDSHTRTTHYGSLPQKSQHGRTQDENPVVHFFKNIVTPRTPPPSQGKGGRDSRSGSPMARR
suppression of PLP-peptide-induced EAE (EAE [3]; orally administered, FIG. 12): equally effective in down-regulating PLP-peptide-induced EAE

B2: bovine PLP: Bovine proteolipid protein (protein, listed as Bos taurus)
chain: GLLECCARCLVGAPFASLVATGLCFFGVALFCGCGHEALTGTEKLIETYFSKNYQDYEYLINVIHAFQYVIYGTASFFFLYGALLLAYGFYTTGAVRQIFGDYKTTICGKGLSATVTGGQKGRGSRGQHQAHSLERVCHCLGKWLGHPDKFVGITYALTVVWLLVFACSAVPVYIYFNTWTTCQSIAAPSKTSASIGTLCADARMYGVLPWNAFPGKVCGSNLLSICKTAEFQMTFHLFIAAFVGAAATLVSLVTFMIAATYNFAVLKLMGRGTKF
suppression of PLP-peptide-induced EAE (EAE [3]; administered intravenously, FIG. 13): effective in suppressing EAE
suppression of PLP-peptide-induced EAE (EAE [3]; orally administered, FIG. 12): equally effective in down-regulating PLP-peptide-induced EAE
